Test results as given in US8609692B2, “TRPV1 antagonists” (AbbVie Inc., priority 2008, dated 2013).

Assays:
[1] = target: T1, human TRPV1 receptor (hTRPV1) (Homo sapiens, UniProt Q8NER1); assay: Capsaicin activation assay (Ca2+ influx, FLIPR); format: cell-based; settings: 0.05 μM capsaicin, 1321N1 cells expressing hTRPV1
T1 construct: expressed in transfected cells
Protocol: Dulbecco's modified Eagle medium (D-MEM) (with 4.5 mg/mL glucose) and fetal bovine serum were obtained from Hyclone Laboratories, Inc. (Logan, Utah). Dulbecco's phosphate-buffered saline (D-PBS) (with 1 mg/mL glucose and 3.6 mg/l Na pyruvate, without phenol red), L-glutamine, hygromycin B, and Lipofectamine® were obtained from Life Technologies (Grand Island, N.Y.). G418 sulfate was obtained from Calbiochem-Novabiochem Corp. (San Diego, Calif.). Capsaicin (8-methyl-N-vanillyl-6-nonenamide) was obtained from Sigma-Aldrich, Co. (St. Louis, Mo.). Fluo-4 AM (N-[4-[6-[(acetyloxy)methoxy]-2,7-difluoro-3-oxo-3H-xanthen-9-yl]-2-[2-[2-[bis[2-[(acetyloxy)methoxy]-2-oxyethyl]amino]-5-methyl-phenoxy]ethoxy]phenyl]-N-[2-[(acetyloxy)methoxy]-2-oxyethyl]-glycine, (acetyloxy)methyl ester) was purchased from Molecular Probes (Eugene, Oreg.).
The cDNAs for the human TRPV1 receptor (hTRPV1) were isolated by reverse transcriptase-polymerase chain reaction (RT-PCR) from human small intestine poly A+RNA supplied by Clontech (Palo Alto, Calif.) using primers designed surrounding the initiation and termination codons identical to the published sequences (Hayes et al. Pain 2000, 88, 205-215). The resulting cDNA PCR products were subcloned into pCIneo mammalian expression vector (Promega) and fully sequenced using fluorescent dye-terminator reagents (Prism, Perkin-Elmer Applied Biosystems Division) and a Perkin-Elmer Applied Biosystems Model 373 DNA sequencer or Model 310 genetic analyzer. Expression plasmids encoding the hTRPV1 cDNA were transfected individually into 1321N1 human astrocytoma cells using Lipofectamine®. Forty-eight hours after transfection, the neomycin-resistant cells were selected with growth medium containing 800 μg/mL Geneticin (Gibco BRL). Surviving individual colonies were isolated and screened for TRPV1 receptor activity. Cells expressing recombinant homomeric TRPV1 receptors were maintained at 37° C. in D-MEM containing 4 mM L-glutamine, 300 μg/mL G418 (Cal-biochem) and 10% fetal bovine serum under a humidified 5% CO2 atmosphere.
The functional activity of compounds at the TRPV1 receptor was determined with a Ca^2+ influx assay and measurement of intracellular Ca^2+ levels ([Ca^2+]i). All compounds were tested over an 11-point half-log concentration range. Compound solutions were prepared in D-PBS (4× final concentration), and diluted serially across 96-well v-bottom tissue culture plates using a Biomek 2000 robotic automation workstation (Beckman-Coulter, Inc., Fullerton, Calif.). A 0.2 μM solution of the TRPV1 agonist capsaicin was also prepared in D-PBS. The fluorescent Ca^2+ chelating dye Fluo-4 AM was used as an indicator of the relative levels of [Ca^2+]i in a 96-well format using a Fluorescence Imaging Plate Reader (FLIPR) (Molecular Devices, Sunnyvale, Calif.). Cells were grown to confluency in 96-well black-walled tissue culture plates. Then, prior to the assay, the cells were loaded with 100 μL per well of Fluo-4 AM (2 μM, in D-PBS) for 1-2 hours at 23° C. Washing of the cells was performed to remove extracellular Fluo-4 AM (2×1 mL D-PBS per well), and afterward, the cells were placed in the reading chamber of the FLIPR instrument. 50 μL of the compound solutions were added to the cells at the 10 second time mark of the experimental run. Then, after a 3-minute time delay, 50 μL of the capsaicin solution was added at the, 190 second time mark (0.05 μM final concentration)(final volume=200 μL) to challenge the TRPV1 receptor. Time length of the experimental run was 240 seconds. Fluorescence readings were made at 1 to 5 second intervals over the course of the experimental run. The peak increase in relative fluorescence units (minus baseline) was calculated from the 190 second time mark to the end of the experimental run, and expressed as a percentage of the 0.05 μM capsaicin (control) response. […]

[2] = Rat telemetry protocol (core body temperature); format: in vivo; settings: core body temperature of rats at one hour post dosing (100 μmol/kg, p.o.), relative to vehicle
Protocol: Male, Sprague Dawley rats, 225-250 grams were anesthetized with Sevoflurane (Abbott Laboratories). Rats were placed on a heating pad and covered with a sterile surgical drape. A ventral midline abdominal incision was made and sterile cotton tip applicators were used to gently move internal tissue and expose the abdominal aorta for implantation of the telemetry catheter (Data Sciences International; TL11M2-050-PXT). Blood flow was temporarily stopped to the lower extremities (5-7 min) with Diffenbach clamps to allow the insertion of the telemetry catheter into the abdominal aorta. Once inserted, a sterile cellulose patch was placed over the catheter/aorta and secured using a small amount of tissue adhesive (Vetbond, 3M). Once catheter placement was complete, the clamps were removed and blood flow was restored to the lower extremities. The transmitter was placed in the intraperitoneal cavity. The transmitter suture rib was sewn into the abdominal sutures to secure it in place. The skin was closed using sterile wound clips and the animal removed from Sevoflurane. Buprenex ([…] s.c.; Phoenix) was administered for post-operative analgesia. Animals were maintained on a heating pad until ambulatory, and then individually housed with food and water ad lib. Surgical staples were removed after 7-10 days post-implantation. Rats were allowed a 2-week post-surgical recovery period before treatment with test compound. Oral dosing (p.o.) was at time zero, with rats receiving a single dose of vehicle (10% EtOH, 20% Tween-80, 70% PEG-400) or a 100 μmol/kg dose of compound dissolved in vehicle. Temperature measurements were recorded every 15 minutes for the duration of the study (24 hours).
The term “core body temperature” as used herein, means the temperature measured in the intraperitoneal cavity.

T1 sequence (Q8NER1 whole entry): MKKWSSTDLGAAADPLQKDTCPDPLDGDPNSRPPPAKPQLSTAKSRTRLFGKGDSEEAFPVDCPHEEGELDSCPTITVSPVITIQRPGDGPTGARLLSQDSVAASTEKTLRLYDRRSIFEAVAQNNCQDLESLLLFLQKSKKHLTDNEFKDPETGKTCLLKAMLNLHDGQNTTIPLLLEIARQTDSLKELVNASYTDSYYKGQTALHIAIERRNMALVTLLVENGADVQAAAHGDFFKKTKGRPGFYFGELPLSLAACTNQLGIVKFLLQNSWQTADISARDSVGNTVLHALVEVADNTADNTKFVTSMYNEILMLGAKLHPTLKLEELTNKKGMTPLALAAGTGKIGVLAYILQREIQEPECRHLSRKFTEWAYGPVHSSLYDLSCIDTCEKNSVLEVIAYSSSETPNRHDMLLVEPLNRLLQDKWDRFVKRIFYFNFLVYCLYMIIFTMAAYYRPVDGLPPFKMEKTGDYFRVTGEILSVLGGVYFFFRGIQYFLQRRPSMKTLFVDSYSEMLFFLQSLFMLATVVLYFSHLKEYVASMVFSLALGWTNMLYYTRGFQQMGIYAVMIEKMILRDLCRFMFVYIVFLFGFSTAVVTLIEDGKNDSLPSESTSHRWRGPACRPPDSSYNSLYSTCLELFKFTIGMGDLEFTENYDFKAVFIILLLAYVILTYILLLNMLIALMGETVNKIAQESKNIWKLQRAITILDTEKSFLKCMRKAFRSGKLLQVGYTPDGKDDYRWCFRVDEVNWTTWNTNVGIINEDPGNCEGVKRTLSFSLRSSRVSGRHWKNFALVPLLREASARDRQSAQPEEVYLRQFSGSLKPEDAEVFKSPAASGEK

IC50 [1] [nM]	Molecule	Δ Temp [2] [°C]
29	O=C(Nc1cccc2c1C[C@H](O)CC2)N[C@@H]1CC(CF)(CF)Oc2cc(F)ccc21 [Example 89, N-[(4R)-7-fluoro-2,2-bis(fluoromethyl)-3,4-dihydro-2H-chromen-4-yl]-N′-[(7R)-7-hydroxy-5,6,7,8-tetrahydronaphthalen-1-yl]urea]	1.3
17	CC1(C)C[C@@H](NC(=O)Nc2cccc3cnc(N)cc23)c2ccc(C(F)(F)F)cc2O1 [Example 90, N-(3-aminoisoquinolin-5-yl)-N′-[(4R)-2,2-dimethyl-7-(trifluoromethyl)-3,4-dihydro-2H-chromen-4-yl]urea]	1.0
21	Cn1ncc2c(NC(=O)N[C@@H]3CC(CF)(CF)Oc4cc(OC(F)(F)F)ccc43)cccc21 [Example 92, N-[(4R)-2,2-bis(fluoromethyl)-7-(trifluoromethoxy)-3,4-dihydro-2H-chromen-4-yl]-N′-(1-methyl-1H-indazol-4-yl)urea]	0.8
32	O=C(Nc1cccc2ccncc12)N[C@@H]1CC(CF)(CF)Oc2cc(C(F)(F)F)ccc21 [Example 93, N-[(4R)-2,2-bis(fluoromethyl)-7-(trifluoromethyl)-3,4-dihydro-2H-chromen-4-yl]-N′-isoquinolin-8-ylurea]	1.1
7	Cc1cc2c(NC(=O)N[C@@H]3CC(C)(C)Oc4c3ccc(C(F)(F)F)c4F)cccc2cn1 [Example 99, N-[(4R)-8-fluoro-2,2-dimethyl-7-(trifluoromethyl)-3,4-dihydro-2H-chromen-4-yl]-N′-(3-methylisoquinolin-5-yl)urea]	0.8
21	CC1(C)C[C@@H](NC(=O)Nc2cccc3c2C[C@@H](O)CC3)c2ccc(Cl)cc2O1 [Example 103, N-[(4R)-7-chloro-2,2-dimethyl-3,4-dihydro-2H-chromen-4-yl]-N′-[(7S)-7-hydroxy-5,6,7,8-tetrahydronaphthalen-1-yl]urea]	1.3
25	O=C(Nc1cccc2c1C[C@@H](O)CC2)N[C@@H]1CC(CF)(CF)Oc2cc(Cl)ccc21 [Example 104, N-[(4R)-7-chloro-2,2-bis(fluoromethyl)-3,4-dihydro-2H-chromen-4-yl]-N′-[(7S)-7-hydroxy-5,6,7,8-tetrahydronaphthalen-1-yl]urea]	1.1
35	O=C(Nc1cccc2c1C[C@H](O)CC2)N[C@@H]1CC(CF)(CF)Oc2cc(Cl)ccc21 [Example 105, N-[(4R)-7-chloro-2,2-bis(fluoromethyl)-3,4-dihydro-2H-chromen-4-yl]-N′-[(7R)-7-hydroxy-5,6,7,8-tetrahydronaphthalen-1-yl]urea]	1.1
53	O=C(Nc1cccc2c1C[C@@H](O)CC2)N[C@@H]1CC(CF)(CF)Oc2c(F)cccc21 [Example 107, N-[(4R)-8-fluoro-2,2-bis(fluoromethyl)-3,4-dihydro-2H-chromen-4-yl]-N′-[(7S)-7-hydroxy-5,6,7,8-tetrahydronaphthalen-1-yl]urea]	0.9
21	CC1(C)C[C@@H](NC(=O)Nc2cccc3c2C[C@H](O)CC3)c2ccc(F)c(Cl)c2O1 [Example 108, N-[(4R)-8-chloro-7-fluoro-2,2-dimethyl-3,4-dihydro-2H-chromen-4-yl]-N′-[(7R)-7-hydroxy-5,6,7,8-tetrahydronaphthalen-1-yl]urea]	1.2
21	CC1(C)C[C@@H](NC(=O)Nc2cccc3c2C[C@@H](O)CC3)c2ccc(F)c(Cl)c2O1 [Example 109, N-[(4R)-8-chloro-7-fluoro-2,2-dimethyl-3,4-dihydro-2H-chromen-4-yl]-N′-[(7S)-7-hydroxy-5,6,7,8-tetrahydronaphthalen-1-yl]urea]	1.2
34	O=C(Nc1cccc2c1C[C@@H](O)CC2)N[C@@H]1CC(CF)(CF)Oc2cc(C(F)(F)F)ccc21 [Example 112, N-[(4R)-2,2-bis(fluoromethyl)-7-(trifluoromethyl)-3,4-dihydro-2H-chromen-4-yl]-N′-[(7S)-7-hydroxy-5,6,7,8-tetrahydronaphthalen-1-yl]urea]	1.4
15	CC1(C)C[C@@H](NC(=O)Nc2cccc3c2C[C@@H](O)CC3)c2ccc(F)c(F)c2O1 [Example 114, N-[(4R)-7,8-difluoro-2,2-dimethyl-3,4-dihydro-2H-chromen-4-yl]-N′-[(7S)-7-hydroxy-5,6,7,8-tetrahydronaphthalen-1-yl]urea]	0.6
23	CC1(C)C[C@@H](NC(=O)Nc2cccc3c2C[C@H](O)CC3)c2ccc(OC(F)(F)F)cc2O1 [Example 115, N-[(4R)-2,2-dimethyl-7-(trifluoromethoxy)-3,4-dihydro-2H-chromen-4-yl]-N′-[(7R)-7-hydroxy-5,6,7,8-tetrahydronaphthalen-1-yl]urea]	1.2
13	CC1(C)C[C@@H](NC(=O)Nc2cccc3c2C[C@@H](O)CC3)c2ccc(OC(F)(F)F)cc2O1 [Example 116, N-[(4R)-2,2-dimethyl-7-(trifluoromethoxy)-3,4-dihydro-2H-chromen-4-yl]-N′-[(7S)-7-hydroxy-5,6,7,8-tetrahydronaphthalen-1-yl]urea]	1.1
82	Cc1cc2c(NC(=O)NC3CC(C)(C)Oc4c3ccc(N3CCCCC3)c4F)cccc2cn1 (centres unmarked) [Example 117, N-(8-fluoro-2,2-dimethyl-7-piperidin-1-yl-3,4-dihydro-2H-chromen-4-yl)-N′-(3-methylisoquinolin-5-yl)urea]	1.0
35	Cc1cc2c(NC(=O)N[C@@H]3CC(C)(C)Oc4cc(C(F)(F)F)ccc43)c(F)ccc2cn1 [Example 125, N-[(4R)-2,2-dimethyl-7-(trifluoromethyl)-3,4-dihydro-2H-chromen-4-yl]-N′-(6-fluoro-3-methylisoquinolin-5-yl)urea]	0.5
15	Cc1cc2c(NC(=O)N[C@@H]3C[C@@](C)(CF)Oc4cc(C(F)(F)F)ccc43)cccc2cn1 [Example 129, N-[(2S,4R)-2-(fluoromethyl)-2-methyl-7-(trifluoromethyl)-3,4-dihydro-2H-chromen-4-yl]-N′-(3-methylisoquinolin-5-yl)urea]	0.7

Molecule	IC50 [1] [nM]	Δ Temp [2] [°C]
N-[(4R)-8-tert-butyl-3,4-dihydro-2H-chromen-4-yl]-N-(3-methylisoquinolin-5-yl)urea, hydrochloride salt [Example 100]	7	1.7
